Patent publication US20130079345A1, “[…] ACTIVE DISUBSTITUTED TRIAZINE DERIVATIVES” (BAYER INTELLECTUAL PROPERTY GMBH, priority 2010, published 2013)

Columns and labels:
CDK9/Cyclin T1 = biological target: T1, CDK9/Cyclin T1 (Homo sapiens, UniProt P50750); assay: LanthaScreen Eu Kinase Binding Assay, CDK9/Cyclin T1; details: tracer 236, read-out: Affinity (Kd) CDK9/Cyclin T1
T1 construct: purchased Invitrogen
Procedure: (§1) This protocol describes how the LanthaScreen Eu Kinase Binding Assay was performed to determine dissociation constants (Kd) of compounds of general formula (I) and CDK/Cyclin complexes. The principle behind this assay is based upon the binding and displacement of an Alexa Fluor 647-labeled tracer, which binds to the active site of kinases. Binding of the tracer to the kinase is detected using a Eu-labeled antibody. Simultaneous binding of both the tracer and antibody to the kinase gives rise to a FRET-signal. Binding of an inhibitor to the kinase competes for binding with the tracer, resulting in a loss of FRET.
(§2) The compounds of general formula (I) summarized in Table 1 were diluted from a 10 mM DMSO stock solution 1:10 in a total volume of 15 μL DMSO. This compound predilution was then serial diluted 1:3 over 8 steps in DMSO and briefly spun down. Each compound solution was now diluted 1:33.33 in kinase buffer (HEPES: 20 mM, pH: 8.0; MgCl2: 10 mM; DTT: 1 mM; Brij-35: 0.01%), mixed thoroughly and spun down. For every sample, 5 μL of the diluted compound were mixed with 5 μL tracer working solution (e.g. 60 nM tracer 236 in kinase buffer for CDK2/Cyclin A) and 5 μL CDK/Cyclin/Anti-GST-AB-working solution (e.g. 15 nM CDK2/Cyclin A, 1:250 dilution of Anti-GST-AB in kinase buffer) in a well of a small volume 384 well plate (Corning Incorporated, Corning, N.Y., USA; order no. 3673). […] For positive controls, in each well 5 μL of DMSO working solution (3% DMSO diluted in kinase buffer) was mixed with 5 μL CDK/Cyclin/Anti-GST-AB-working solution: (e.g. 15 nM CDK2/Cyclin A, 1:250 dilution of Anti-GST-AB in kinase buffer) and 5 μL Tracer working solution (e.g. 60 nM Tracer 236 in kinase buffer for CDK2/Cyclin A). Positive and negative controls were calculated from at least 8 different sample wells. The 384 well plates were mixed in a Teleshaker plate mixer (Beckman Coulter, Brea, Calif., USA) at 2000 rpm for 40 sec, and incubated for 1 h at room temperature before reading. The FRET signal was measured at 340 nm excitation, 665 nm and 615 nm emission (for the kinase tracer and LanthaScreen Eu-AB, respectively) with an Envision spectrophotometer (Perkin Elmer, Waltham, Mass., USA) with 50 μs delay and 300 μs integration time. Kd values were determined from the sigmoidal dose response curves with the software Quattro Workflow (Quattro GmbH, Munich, Germany).

CDK9/Cyclin K = biological target: T2, CDK9/Cyclin K (Homo sapiens, UniProt P50750); assay: LanthaScreen Eu Kinase Binding Assay, CDK9/Cyclin K; details: tracer 236, read-out: Affinity (Kd) CDK9/Cyclin K
T2 construct: purchased Invitrogen
T2 sequence (P50750 whole entry): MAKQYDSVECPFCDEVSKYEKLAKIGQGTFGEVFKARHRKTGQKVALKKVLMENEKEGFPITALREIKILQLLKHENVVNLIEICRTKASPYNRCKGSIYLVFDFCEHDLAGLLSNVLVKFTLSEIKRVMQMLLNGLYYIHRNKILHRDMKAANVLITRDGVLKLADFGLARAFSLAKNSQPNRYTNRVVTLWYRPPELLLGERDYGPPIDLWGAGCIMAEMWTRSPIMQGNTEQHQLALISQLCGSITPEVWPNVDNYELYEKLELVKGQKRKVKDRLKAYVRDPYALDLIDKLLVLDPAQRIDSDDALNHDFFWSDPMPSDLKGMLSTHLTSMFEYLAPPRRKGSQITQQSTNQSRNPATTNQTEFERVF
T2 sequence (O75909 whole entry partner): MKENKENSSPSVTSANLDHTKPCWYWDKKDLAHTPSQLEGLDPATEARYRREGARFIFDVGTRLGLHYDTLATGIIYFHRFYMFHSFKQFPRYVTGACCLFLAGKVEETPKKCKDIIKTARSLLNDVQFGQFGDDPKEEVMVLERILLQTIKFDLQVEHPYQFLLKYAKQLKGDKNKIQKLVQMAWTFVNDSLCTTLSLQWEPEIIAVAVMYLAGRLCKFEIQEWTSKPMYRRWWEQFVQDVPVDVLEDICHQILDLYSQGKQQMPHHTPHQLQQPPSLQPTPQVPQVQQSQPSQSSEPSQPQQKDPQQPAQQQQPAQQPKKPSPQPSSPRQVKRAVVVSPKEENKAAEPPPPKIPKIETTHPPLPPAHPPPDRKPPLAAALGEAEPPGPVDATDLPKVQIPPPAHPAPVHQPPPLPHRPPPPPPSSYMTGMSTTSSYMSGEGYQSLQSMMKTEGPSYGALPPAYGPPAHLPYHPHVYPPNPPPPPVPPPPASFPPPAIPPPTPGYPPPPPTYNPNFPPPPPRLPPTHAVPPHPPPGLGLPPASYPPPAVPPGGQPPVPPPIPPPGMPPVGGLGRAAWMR
Procedure: as §1, §2

CDK7/CyclinH/Mat1 = biological target: T3, CDK7/CyclinH/Mat1 (Homo sapiens, UniProt P50613); assay: LanthaScreen Eu Kinase Binding Assay, CDK7; details: tracer 236, read-out: Affinity (Kd) CDK7
T3 construct: purchased Carna Biosciences
T3 sequence (P50613 whole entry): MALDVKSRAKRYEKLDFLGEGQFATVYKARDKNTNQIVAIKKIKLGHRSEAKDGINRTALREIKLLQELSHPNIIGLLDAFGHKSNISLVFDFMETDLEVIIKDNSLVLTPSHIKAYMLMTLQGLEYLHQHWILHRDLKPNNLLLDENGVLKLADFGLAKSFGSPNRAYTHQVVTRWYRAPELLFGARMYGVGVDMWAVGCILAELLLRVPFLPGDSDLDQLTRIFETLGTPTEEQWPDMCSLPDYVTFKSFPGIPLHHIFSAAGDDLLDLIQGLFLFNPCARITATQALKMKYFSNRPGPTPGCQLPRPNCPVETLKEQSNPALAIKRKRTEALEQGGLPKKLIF
T3 sequence (P51946 whole entry partner): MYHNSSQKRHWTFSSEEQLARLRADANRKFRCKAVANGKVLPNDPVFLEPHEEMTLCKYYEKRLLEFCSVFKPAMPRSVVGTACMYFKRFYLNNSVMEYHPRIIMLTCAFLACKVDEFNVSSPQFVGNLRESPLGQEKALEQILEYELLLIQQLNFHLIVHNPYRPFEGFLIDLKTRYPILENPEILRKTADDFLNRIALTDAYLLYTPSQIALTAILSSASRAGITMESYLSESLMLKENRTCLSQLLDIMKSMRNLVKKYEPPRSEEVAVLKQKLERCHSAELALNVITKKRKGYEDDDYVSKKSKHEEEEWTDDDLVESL
T3 sequence (P51948 whole entry partner): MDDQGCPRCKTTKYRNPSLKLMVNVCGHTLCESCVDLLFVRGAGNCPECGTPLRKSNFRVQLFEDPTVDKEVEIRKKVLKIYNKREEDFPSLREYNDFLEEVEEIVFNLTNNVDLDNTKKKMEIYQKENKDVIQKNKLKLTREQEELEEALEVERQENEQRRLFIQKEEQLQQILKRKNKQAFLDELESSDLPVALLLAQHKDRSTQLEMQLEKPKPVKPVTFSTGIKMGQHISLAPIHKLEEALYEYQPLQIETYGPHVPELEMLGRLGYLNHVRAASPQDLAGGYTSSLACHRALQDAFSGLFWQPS
Procedure: as §1, §2

CDK2/CyclinA = biological target: T4, CDK2/CyclinA (Homo sapiens, UniProt P24941); assay: LanthaScreen Eu Kinase Binding Assay, CDK2; details: tracer 236, read-out: Affinity (Kd) CDK2
T4 construct: purchased Proqinase
Procedure: as §1, §2

T1 sequence (P50750 whole entry): as the sequence (P50750 whole entry) above
T1 sequence (O60563 whole entry partner): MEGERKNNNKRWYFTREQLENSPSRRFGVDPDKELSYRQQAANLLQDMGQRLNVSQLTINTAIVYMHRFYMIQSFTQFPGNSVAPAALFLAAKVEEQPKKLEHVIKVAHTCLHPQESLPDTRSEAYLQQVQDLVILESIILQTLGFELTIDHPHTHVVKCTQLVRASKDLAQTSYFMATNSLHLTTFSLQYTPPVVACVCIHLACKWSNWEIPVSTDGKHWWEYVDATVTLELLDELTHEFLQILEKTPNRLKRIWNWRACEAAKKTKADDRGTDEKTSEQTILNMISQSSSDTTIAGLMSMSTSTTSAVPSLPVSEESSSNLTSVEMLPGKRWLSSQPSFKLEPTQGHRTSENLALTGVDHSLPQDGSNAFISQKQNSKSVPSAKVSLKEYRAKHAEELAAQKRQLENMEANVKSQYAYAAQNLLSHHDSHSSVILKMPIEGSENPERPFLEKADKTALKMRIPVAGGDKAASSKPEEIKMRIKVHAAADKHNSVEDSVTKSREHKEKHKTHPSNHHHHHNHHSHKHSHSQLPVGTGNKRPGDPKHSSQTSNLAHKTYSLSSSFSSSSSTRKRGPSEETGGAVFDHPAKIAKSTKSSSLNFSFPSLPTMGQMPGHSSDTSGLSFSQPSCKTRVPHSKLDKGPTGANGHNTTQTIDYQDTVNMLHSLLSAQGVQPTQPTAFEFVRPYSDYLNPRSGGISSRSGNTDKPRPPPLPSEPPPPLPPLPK

SMILES	Kd (CDK9/Cyclin T1) [nM]	Kd (CDK9/Cyclin K) [nM]	Kd (CDK7/CyclinH/Mat1) [nM]	Kd (CDK2/CyclinA) [nM]
COc1ccc(CO)cc1-c1ncnc(Nc2cccc(CS(N)(=O)=O)c2)n1 [Compound B10, 3-[(4-(5-Hydroxymethyl-2-methoxyphenyl)-1,3,5-triazin-2-yl)amino]benzenemethanesulfonamide]	309	110	> 10000	
CNCc1ccc(OC)c(-c2ncnc(Nc3cccc(CS(N)(=O)=O)c3)n2)c1 [Compound O1, 3-[(4-(2-Methoxy-5-(methylamino-methyl)phenyl)-1,3,5-triazin-2-yl)amino]benzenemethanesulfonamide]	5410	5980	> 30000	
COc1ccc(C(F)(F)F)cc1-c1ncnc(Nc2cccc(CS(N)(=O)=O)c2)n1 [Compound B9, 3-[(4-(2-Methoxy-5-trifluoromethyl-phenyl)-1,3,5-triazin-2-yl)amino]benzenemethanesulfonamide]	398	1590	> 10000	
COc1cc(C(F)(F)F)ccc1-c1ncnc(Nc2cccc(CS(N)(=O)=O)c2)n1 [Compound B8, 3-[(4-(2-Methoxy-4-trifluoromethyl-phenyl)-1,3,5-triazin-2-yl)amino]benzenemethanesulfonamide]	1230	709	> 10000	
NS(=O)(=O)Cc1cccc(Nc2ncnc(-c3ccccc3CNC3CC3)n2)c1 [Compound B22, 3-[(4-(2-(Cyclopropylamino-methyl)phenyl)-1,3,5-triazin-2-yl)amino]benzenemethanesulfonamide]	425	373		
COCc1ccccc1-c1ncnc(Nc2cccc(CS(N)(=O)=O)c2)n1 [Compound B24, 3-[(4-(2-(Methoxymethyl)phenyl)-1,3,5-triazin-2-yl)amino]benzenemethanesulfonamide]	907	1110	> 10000	
COc1c(F)cc(F)cc1-c1ncnc(Nc2cccc(CS(N)(=O)=O)c2)n1 [Compound B5, 3-[(4-(3,5-Difluoro-2-methoxyphenyl)-1,3,5-triazin-2-yl)amino]benzenemethanesulfonamide]	835	286	> 10000	
CC(C)(C)OC(=O)NCCCCOc1ccccc1-c1ncnc(Nc2cccc(CS(N)(=O)=O)c2)n1 [Compound B17, 3-[(4-(2-(4-(tert-Butoxycarbonylamino)butoxy)phenyl)-1,3,5-triazin-2-yl)amino]benzenemethanesulfonamide]	15	6.4	12800	2850
NCCCCOc1ccccc1-c1ncnc(Nc2cccc(CS(N)(=O)=O)c2)n1 [Compound I1, 3-[(4-(2-(4-Aminobutoxy)phenyl)-1,3,5-triazin-2-yl)amino]benzenemethanesulfonamide]	101	52	> 30000	

Now from value to compound:

Kd (CDK9/Cyclin T1) [nM]	Kd (CDK9/Cyclin K) [nM]	Kd (CDK7/CyclinH/Mat1) [nM]	Kd (CDK2/CyclinA) [nM]	SMILES
105	87.2	> 10000	> 10000	CCOC(=O)N=S(C)(=O)c1cccc(Nc2ncnc(-c3ccccc3OC)n2)c1 (racemic) [Compound G1, rac-S-[3-((4-(2-Methoxyphenyl)-1,3,5-triazin-2-yl)amino)phenyl]-N-ethoxycarbonyl-S-methyl-sulfoximide]
146	71.2	> 30000	1450	COc1ccccc1-c1ncnc(Nc2cccc(NC(C)=O)c2)n1 [Compound M1, N-[3-((4-(2-Methoxyphenyl)-1,3,5-triazin-2-yl)amino)phenyl]acetamide]
5	5	> 10000	2920	COc1cc(F)ccc1-c1ncnc(Nc2cccc(CS(=O)(=O)NCCCCN)c2)n1 [Compound R1, N-(4-Aminobutyl)-1-[3-((4-(4-fluoro-2-methoxyphenyl)-1,3,5-triazin-2-yl)amino)phenyl]methanesulfonamide]
12.9	5	> 10000	2090	COc1cc(F)ccc1-c1ncnc(Nc2cccc(CS(=O)(=O)NCCCCNC(=O)OC(C)(C)C)c2)n1 [Compound Q1, tert-Butyl [4-((3-((4-(4-Fluoro-2-methoxyphenyl)-1,3,5-triazin-2-yl)amino)phenyl)methylsulfonamido)butyl]carbamate]
131	39.7	13400	1100	COc1ccccc1-c1ncnc(Nc2ccc3c(c2)N(S(N)(=O)=O)CC3)n1 [Compound F1, 6-[(4-(2-Methoxyphenyl)-1,3,5-triazin-2-yl)amino]-2,3-dihydro-1H-indole-1-sulfonamide]
